{"source": "patent US5574070A", "about": "“Substituted guanidines having high binding to the sigma receptor and the use thereof” (priority 1993, dated 1996)", "key": {"sigma receptor [1]": {"test_system": "sigma receptor", "details": "cited from earlier work"}, "[2]": {"test_system": "dopamine-stimulated cAMP production", "details": "in vitro; cited from earlier work"}, "[3]": {"test_system": "adrenergic, muscarinic, cholinergic, or histaminergic sites", "details": "cited from earlier work"}, "[4]": {"test_system": "D1 subclass of dopamine receptors", "details": "cited from earlier work"}, "[5]": {"test_system": "D2 class of striatal dopamine receptors", "details": "cited from earlier work"}, "rats": {"test_system": "rats", "details": "rat, in vivo; cited from earlier work"}, "rhesus monkeys": {"test_system": "rhesus monkeys", "details": "introduction of foreign objects into cages; cited from earlier work"}, "[6]": {"test_system": "apomorphine-induced mesolimbic behaviors", "details": "without altering the intensity of stereotypic behaviors; cited from earlier work"}, "anxiety": {"test_system": "anxiety", "details": "in vivo; cited from earlier work"}, "dopamine synthesis": {"test_system": "dopamine synthesis", "details": "cited from earlier work"}, "[7]": {"test_system": "dopamine-stimulated production of cAMP", "details": "homogenates of rat striatum and olfactory tubercle; cited from earlier work"}, "[8]": {"test_system": "mu, delta and kappa receptors", "details": "cited from earlier work"}, "sigma receptor [9]": {"target": "sigma receptor", "assay": "[3H]DTG displacement radioligand binding assay, guinea pig brain membranes"}}, "note": "Where two headings read alike, the source gives them in different places.", "data": [{"molecule": "OC(CCCN1CCN(c2ncc(F)cn2)CC1)c1ccc(F)cc1", "note": "(stereo not shown) [BMY 14802]", "values": [{"measurement": "binding to the sigma receptor", "setting": "sigma receptor [1]", "value": "binds with relatively high affinity to the sigma receptor"}, {"measurement": "potency of dextrorotatory vs levorotatory enantiomer at inhibiting sigma binding", "setting": "sigma receptor [1]", "value": 10, "unit": "times"}, {"measurement": "inhibition of dopamine-stimulated cAMP production", "setting": "[2]", "value": "does not inhibit dopamine-stimulated cAMP production"}, {"measurement": "binding to adrenergic, muscarinic, cholinergic, or histaminergic sites", "setting": "[3]", "value": "does not bind to the adrenergic, muscarinic, cholinergic, or histaminergic sites"}, {"measurement": "interaction with D1 subclass / inhibition of [3H]SCH 23390 binding in vitro", "setting": "[4]", "value": "does not appear to interact with the D1 subclass of dopamine receptors"}, {"measurement": "maximal density of [3H]spiperone-labeled D2 site", "setting": "[5]; chronic administration (20 days) to rats", "value": "did not increase the maximal density"}, {"measurement": "inhibition of [3H]spiperone binding to D2", "setting": "[5]", "value": "does not inhibit the binding of [^3 H]spiperone"}, {"measurement": "catalepsy", "setting": "rats", "value": "did not cause catalepsy in rats"}]}, {"molecule": "O=C1CC2(CCCC2)CC(=O)N1CCCCN1CCN(c2ncccn2)CC1", "note": "[Buspirone]", "values": [{"measurement": "taming of the aggressive response", "setting": "rhesus monkeys", "value": "efficacy in a predictive animal model"}]}, {"molecule": "C[C@@H]1CN(CCCn2c3ccccc3c3ccccc32)C[C@H](C)N1.Cl.Cl", "note": "[rimcazole, cis-9-[3-(3,5-dimethyl-1-piperazinyl)propyl]carbazole dihydrochloride]", "values": [{"measurement": "antagonism of apomorphine-induced mesolimbic behaviors", "setting": "[6]", "value": "ability to antagonize apomorphine-induced mesolimbic behaviors selectively"}, {"measurement": "anxiolytic activity", "setting": "anxiety", "value": "determined to have anxiolytic activity"}, {"measurement": "effect on rate of dopamine synthesis", "setting": "dopamine synthesis", "value": "does not accelerate the rate of dopamine synthesis"}, {"measurement": "effect on dopamine-stimulated cAMP", "setting": "[7]", "value": "does not affect dopamine-stimulated production of cAMP"}]}, {"molecule": "C=CCN1CCC2(C)c3cc(O)ccc3CC1C2C", "note": "(single isomer, unassigned; (-)) [(-)SKF 10,047, N-allyl-normetazocine, reference compound]", "values": [{"measurement": "binding to delta, mu and kappa receptors", "setting": "[8]", "value": "apparently labeled the mu and kappa receptors but not the sigma receptors"}, {"measurement": "IC50", "setting": "sigma receptor [9]; read-out: IC50 binding values", "value": "4 ± 0.566", "unit": "µM"}, {"measurement": "IC50", "setting": "sigma receptor [9]; read-out: IC50 vs. [3H]DTG", "value": 4, "unit": "µM"}]}]}
